Test results reported in US8217060B2, “Benzimidazole derivatives useful as TRP M8 receptor modulators” (Janssen Pharmaceutica, NV, priority 2009, dated 2012).
pIC50: −log10 of the molar value. Where a name gives a salt, the structure may show the parent alone.

Legend:
Male Sprague Dawley rats [1] = assay: Inhibition of Icilin-Induced “Wet-Dog” Shakes in Rats; assay type: in vivo; settings: 60 min before icilin 3.0 mg/kg i.p., rat
Description: Male Sprague Dawley rats ([…], Charles River Labs, n=6-9/treatment) were used to evaluate the ability of test compounds to block icilin-induced “wet-dog” shakes (WDS). The test compound was administered in 10% hydroxypropyl-β-cyclodextrin (HP β CD), p.o., 60 minutes before icilin. Icilin was then administered in 10% solutol/H2O, at 3.0 mg/kg, i.p. and spontaneous “wet-dog” shakes were counted over a 10 minute period, 10 minutes following the icilin injection.

canine TRPM8 = target: T1, canine TRPM8 (Canis lupus familiaris, UniProt Q1A7N1); assay: In Vitro Canine TRPM8 Functional Assay (icilin-induced intracellular Ca2+ fluorescence, FLIPR/FDSS); assay type: cell-based; settings: HEK293 cells stably expressing canine TRPM8; for inhibition at 0.2 µM: 0.2 μM test compound, icilin challenge; for pIC50: icilin challenge (~80% maximal response), eight-point dose-response
T1 construct: expressed in transfected cells
Description: The functional activity of representative compounds of the formula (I) of the present invention were measured by measuring changes in intracellular calcium concentration using a Ca^2+-sensitive fluorescent dye. The changes in fluorescent signal were monitored by a fluorescence plate reader, either a FLIPR™ (Molecular Devices) or FDSS (Hamamatsu).
HEK293 cells stably expressing canine TRPM8 were routinely grown as monolayers in Dulbecco's minimum essential medium supplemented with 10% FBS, 2 mM L-glutamine, 100 units/mL penicillin, 100 ug/mL streptomycin and 400 μg/mL G418. Cells were maintained in 5% CO2 at 37° C. At 24 hrs prior to assay, cells were seeded in black wall, clear-base poly-D-lysine coated 384-well plates (BD Biosciences, NJ, USA) at a density of 5,000 cells per well in culture medium and grown overnight in 5% CO2 at 37° C. On assay day, growth media was removed and cells were loaded with Calcium 3 Dye (Molecular Devices) for 35 min at 37° C., under 5% CO2 and then for 25 min at room temperature and atmosphere. Subsequently, cells were tested for agonist-induced increases in intracellular Ca^2+ levels using FLIPR™ or FDSS. Cells were challenged with compounds of the formula (I) (at varying concentrations) and intracellular Ca^2+ was measured for 5 min prior to the addition of icilin to all wells to achieve a final concentration that produces approximately an 80% maximal response.
Basal FI was subtracted prior to normalizing data to percent of maximal response. Curves were generated using the average of quadruplicate wells for each data point, were analyzed using nonlinear regression of either sigmoidal dose response or sigmoidal dose response (variable slope). Finally, the EC50 and IC50 values were calculated with the best-fit dose curve determined by GraphPad Prism

Male Sprague Dawley rats [2] = assay: Chronic Constriction Injury (CCI)-Induced Model of Neuropathic Pain - Acetone-Induced Hypersensitivity; assay type: in vivo; settings: 10 mg/kg p.o. in 10% HP β CD, rat
Excerpt: Male Sprague Dawley rats (225-450 g; n=5-8/treatment) were used to evaluate the ability of test compounds to reverse CCI-induced cold hypersensitivity. Four loose ligatures of 4-0 chromic gut were surgically placed around the left sciatic nerve under inhalation anesthesia as described by Bennett et al (BENNETT G. J. et al., “A Peripheral Mononeuropathy in Rat that Produces Disorders of Pain Sensation Like Those Seen in Man”, Pain, 1988, pp. 87-107, Vol 33(1)). Fourteen to 35 days following CCI surgery, subjects were placed in elevated observation chambers containing wire mesh floors and five applications of acetone (0.05 mL/application separated by approximately 5 minutes) were spritzed onto the plantar surface of the paw using a multidose syringe. An abrupt withdrawal or lifting of the paw was considered a positive response. The number of positive responses was recorded for each rat over the five trials. Following baseline withdrawal determinations, test compounds were administered in 10% hydroxypropyl-β-cyclodextrin (HP β CD), p.o. The number of withdrawals was re-determined at 2, 3 and 4 hours after compound administration.

T1 sequence (Q1A7N1 1-1104): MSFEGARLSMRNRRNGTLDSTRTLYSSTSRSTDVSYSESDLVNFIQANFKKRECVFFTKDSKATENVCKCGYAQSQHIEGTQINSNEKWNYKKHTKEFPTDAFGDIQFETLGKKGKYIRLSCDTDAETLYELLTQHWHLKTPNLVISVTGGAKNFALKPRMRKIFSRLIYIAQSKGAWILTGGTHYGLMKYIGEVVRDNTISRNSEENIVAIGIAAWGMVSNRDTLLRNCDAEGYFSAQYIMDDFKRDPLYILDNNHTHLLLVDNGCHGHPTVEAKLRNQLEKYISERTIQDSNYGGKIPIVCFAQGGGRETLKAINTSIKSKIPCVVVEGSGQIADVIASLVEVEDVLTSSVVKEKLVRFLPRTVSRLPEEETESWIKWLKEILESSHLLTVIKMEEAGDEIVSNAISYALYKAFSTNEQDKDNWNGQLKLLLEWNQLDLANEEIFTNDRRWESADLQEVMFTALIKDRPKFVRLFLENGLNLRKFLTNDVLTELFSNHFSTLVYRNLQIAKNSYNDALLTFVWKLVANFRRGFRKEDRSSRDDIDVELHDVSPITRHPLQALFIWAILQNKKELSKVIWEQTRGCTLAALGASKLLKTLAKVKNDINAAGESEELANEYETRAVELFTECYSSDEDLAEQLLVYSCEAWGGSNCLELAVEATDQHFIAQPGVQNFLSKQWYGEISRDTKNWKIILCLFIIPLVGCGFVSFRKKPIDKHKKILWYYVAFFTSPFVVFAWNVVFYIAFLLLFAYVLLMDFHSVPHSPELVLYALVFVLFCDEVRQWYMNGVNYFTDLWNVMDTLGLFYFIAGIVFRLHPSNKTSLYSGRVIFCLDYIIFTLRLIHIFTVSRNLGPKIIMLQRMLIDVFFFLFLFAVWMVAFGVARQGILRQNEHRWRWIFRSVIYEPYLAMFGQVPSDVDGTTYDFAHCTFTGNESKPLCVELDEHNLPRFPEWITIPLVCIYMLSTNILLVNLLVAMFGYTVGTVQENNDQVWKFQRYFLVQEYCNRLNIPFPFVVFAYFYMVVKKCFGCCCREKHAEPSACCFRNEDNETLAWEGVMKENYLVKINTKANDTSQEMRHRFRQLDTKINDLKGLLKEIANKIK

Row | SMILES | % Inhibition of icilin-induced “wet-dog” shakes (Male Sprague Dawley rats [1]; 10 mg/kg p.o.) [%] | inhibition at 0.2 µM (canine TRPM8) [%] | pIC50 (canine TRPM8) | % Inhibition (acetone-evoked paw withdrawals, CCI) (Male Sprague Dawley rats [2]; 2 h after administration) [%] | % Inhibition (acetone-evoked paw withdrawals, CCI) (Male Sprague Dawley rats [2]; 3 h after administration) [%] | % Inhibition (acetone-evoked paw withdrawals, CCI) (Male Sprague Dawley rats [2]; 4 h after administration) [%] | % Inhibition of icilin-induced “wet-dog” shakes (Male Sprague Dawley rats [1]; 30 mg/kg p.o.) [%]
1 | FC(F)(F)c1ccccc1-c1ccc2[nH]c(/C=C/C3CCOCC3)nc2c1 [Compound 50, (E)-2-[2-(Tetrahydro-pyran-4-yl)-vinyl]-5-(2-trifluoromethyl-phenyl)-1H-benzimidazole hydrochloride] | 89 | 101 | 7.77 | – | – | – | –
2 | FC(F)(F)c1cccc(C(F)(F)F)c1-c1ccc2[nH]c(/C=C/C3CCCCC3)nc2c1 [Compound 58, (E)-5-(2,6-Bis-trifluoromethyl-phenyl)-2-(2-cyclohexyl-vinyl)-1H-benzimidazole] | 30 | 83 | 8.05 | – | – | – | –
3 | Fc1cccc(OC(F)(F)F)c1-c1ccc2[nH]c(/C=C/C3CCCCC3)nc2c1 [Compound 59, (E)-2-(2-Cyclohexyl-vinyl)-5-(2-fluoro-6-trifluoromethoxy-phenyl)-1H-benzimidazole] | 75 | 96 | 8.22 | – | – | – | –
4 | Cl.FC(F)(F)c1ccccc1-c1ccc2[nH]c(/C=C/C3CCCCC3)nc2c1 [Compound 71, 2-(2-Cyclohexyl-vinyl)-5-(2-trifluoromethyl-phenyl)-1H-benzoimidazole hydrochloride] | – | 94 | 8.05 | 91 | 91 | 77 | 90
